US8952026B2, “PRMT1 inhibitors and uses thereof” (Epizyme, Inc., priority 2013, dated 2015)

Biological target: T1, full-length human GST-tagged PRMT1 (Homo sapiens, UniProt Q99873)
T1 construct: GST-tagged PRMT1; made in house; host or cells: High Five insect cells (baculovirus, pFastBacI)
Experiment: PRMT1 Biochemical Assay (3H-SAM Flashplate, histone H4 peptide substrate)
Text: General Materials. S-adenosylmethionine (SAM), S-adenosylhomocysteine (SAH), bicine, Tween20, dimethylsulfoxide (DMSO), bovine skin gelatin (BSG), and Tris(2-carboxyethyl)phosphine hydrochloride solution (TCEP) were purchased from Sigma-Aldrich at the highest level of purity possible. ^3H-SAM was purchase from American Radiolabeled Chemicals with a specific activity of 80 Ci/mmol. 384-well streptavidin Flashplates were purchased from PerkinElmer.
Protein Expression. Recombinant baculovirus were generated according to Bac-to-Bac kit instructions (Life Technologies). Protein over-expression was accomplished by infecting exponentially growing High Five insect cell culture at 1.5×10^6cell/ml with 1:100 ratio of virus. Infections were carried out at 27° C. for 48 hours, harvested by centrifugation, and stored at −80° C. for purification.
Protein Purification. […] GST-tagged PRMT1 was eluted with 50 mM Tris, 2 mM glutathione, pH 7.8, dialysed in buffer A and concentrated to 1 mg/mL.
General Procedure for PRMT1 Enzyme Assays on Peptide Substrates. The assays were all performed in a buffer consisting of 20 mM Bicine (pH=7.6), 1 mM TCEP, 0.005% BSG, and 0.002% Tween 20, prepared on the day of use. […] DMSO (1 ul) was added to Columns 11, 12, 23, 24, rows A-H for the maximum signal control and 1 ul of SAH, a known product and inhibitor of PRMT1, was added to columns 11, 12, 23, 24, rows I-P for the minimum signal control. A cocktail (40 ul) containing the PRMT1 enzyme was added by Multidrop Combi (Thermo-Fisher). The compounds were allowed to incubate with PRMT1 for 30 min at room temperature, then a cocktail (10 ul) containing SAM and peptide was added to initiate the reaction (final volume=51 ul). […] The assays were stopped by the addition of non-radiolabeled SAM (10 ul) to a final concentration of 300 uM, which dilutes the ^3H-SAM to a level where its incorporation into the peptide substrate is no longer detectable. 50 ul of the reaction in the 384-well polypropylene plate was then transferred to a 384-well Flashplate and the biotinylated peptides were allowed to bind to the streptavidin surface for at least 1 hour before being washed once with 0.1% Tween20 in a Biotek ELx405 plate washer. The plates were then read in a PerkinElmer TopCount plate reader to measure the quantity of ^3H-labeled peptide bound to the Flashplate surface, measured as disintegrations per minute (dpm) or alternatively, referred to as counts per minute (cpm).
Where dpm=disintegrations per minute, cmpd=signal in assay well, and min and max are the respective minimum and maximum signal controls.
Where top and bottom are the normally allowed to float, but may be fixed at 100 or 0 respectively in a 3-parameter fit. The Hill Coefficient normally allowed to float but may also be fixed at 1 in a 3-parameter fit. Y is the % inhibition and X is the compound concentration.

T1 sequence (Q99873 with tags, fused parts or gaps): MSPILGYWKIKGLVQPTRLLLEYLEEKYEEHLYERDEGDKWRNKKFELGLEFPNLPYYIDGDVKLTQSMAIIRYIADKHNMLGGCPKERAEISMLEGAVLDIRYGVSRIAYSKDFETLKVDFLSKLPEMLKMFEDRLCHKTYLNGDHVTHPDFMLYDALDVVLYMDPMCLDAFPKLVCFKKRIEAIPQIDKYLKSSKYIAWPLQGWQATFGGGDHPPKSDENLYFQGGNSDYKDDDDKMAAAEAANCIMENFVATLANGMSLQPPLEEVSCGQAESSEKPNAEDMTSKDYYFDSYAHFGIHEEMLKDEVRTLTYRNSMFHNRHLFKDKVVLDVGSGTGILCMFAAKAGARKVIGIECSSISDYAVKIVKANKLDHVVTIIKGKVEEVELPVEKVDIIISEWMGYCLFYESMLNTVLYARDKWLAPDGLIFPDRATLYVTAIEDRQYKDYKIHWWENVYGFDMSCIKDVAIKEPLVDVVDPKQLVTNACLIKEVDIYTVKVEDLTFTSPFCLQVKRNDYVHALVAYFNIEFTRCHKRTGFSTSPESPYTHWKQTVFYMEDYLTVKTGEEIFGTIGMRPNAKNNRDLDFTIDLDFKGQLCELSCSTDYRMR

Row | Compound | IC50 [nM]
1 | CNCCN(C)Cc1c[nH]nc1-c1cc(OCCc2ccccc2OC)cc(C(F)(F)F)c1 [Compound 50] | < 100
2 | CN(CCN)Cc1c[nH]nc1-c1ccc(F)c(C(F)(F)F)c1 [Compound 4] | < 100
3 | CNCCN(C)Cc1c[nH]nc1-c1cc(OCCOC)c(Cl)c(C(F)(F)F)c1 [Compound 55] | 101 to 1000
4 | CCCOc1cc(-c2n[nH]cc2CN(C)CCNC)cc(C(F)(F)F)c1 [Compound 19] | < 100
5 | CNCCN(C)Cc1n[nH]cc1-c1ccc(OCCC(C)C)c(C(F)(F)F)c1 [Compound 17] | < 100
6 | CNCCN(C)Cc1c[nH]nc1-c1cc(OCCOC)c(F)c(C(F)(F)F)c1 [Compound 64] | < 100
7 | CNCCN(C)Cc1c[nH]nc1-c1cc(C)c(OCC2CCOCC2)c(C(F)(F)F)c1 [Compound 65] | < 100
8 | CC(C)Oc1ccc(-c2c[nH]nc2CN(C)CCN)cc1C(F)(F)F [Compound 8] | < 100
9 | CNCCN(C)Cc1c[nH]nc1-c1cc(OCCCC(C)=O)cc(C(F)(F)F)c1 [Compound 49] | < 100
10 | CCC(CC)Oc1cc(-c2n[nH]cc2CN(C)CCNC)cc(C(F)(F)F)c1 [Compound 47] | < 100
11 | CNCCN(C)Cc1c[nH]nc1-c1cc(OCc2ccccc2)cc(C(F)(F)F)c1 [Compound 37] | < 100
12 | CN(CCN)Cc1n[nH]cc1-c1ccc(Oc2ccccc2)c(C(F)(F)F)c1 [Compound 26] | < 100
13 | CNCCN(C)Cc1c[nH]nc1-c1cccc(C(F)(F)F)c1 [Compound 1] | 101 to 1000
14 | CNCCN(C)Cc1n[nH]cc1-c1cc(Cl)c(OC(C)C)c(C(F)(F)F)c1 [Compound 33] | < 100
15 | CNCCN(C)Cc1c[nH]nc1-c1cc(OCCC(C)C)c(Cl)c(C(F)(F)F)c1 [Compound 54] | 101 to 1000
16 | CNCCN(C)Cc1c[nH]nc1-c1cc(CCC(C)C)cc(C(F)(F)F)c1 [Compound 62] | < 100
17 | CNCCN(C)Cc1c[nH]nc1-c1cc(Oc2ccccn2)cc(C(F)(F)F)c1 [Compound 52] | < 100
18 | CC(C)Oc1cc(-c2n[nH]cc2CN(C)CCN)cc(C(F)(F)F)c1 [Compound 6] | < 100
19 | CNCCN(C)Cc1c[nH]nc1-c1ccc(OCCCOC)c(C(F)(F)F)c1 [Compound 13] | < 100
20 | CNCCN(C)Cc1c[nH]nc1-c1cc(OCCCOC)c(Cl)c(C(F)(F)F)c1 [Compound 57] | < 100
21 | CNCCN(C)Cc1c[nH]nc1-c1cc(OCC2CCOCC2)cc(C(F)(F)F)c1 [Compound 46] | < 100
22 | CNCCN(C)Cc1c[nH]nc1-c1cc(C)c(OC2CCOCC2)c(C(F)(F)F)c1 [Compound 59] | < 100

Row | Compound | IC50 [nM]
23 | CNCCN(C)Cc1n[nH]cc1-c1ccc(OCC(C)C)c(C(F)(F)F)c1 [Compound 18] | < 100
24 | CNCCN(C)Cc1n[nH]cc1-c1ccc(OCCCOC)c(C(F)(F)F)c1 [Compound 20] | < 100
25 | CN(CCN)Cc1c[nH]nc1-c1ccc(Oc2ccccc2)c(C(F)(F)F)c1 [Compound 23] | < 100
26 | CNCCN(C)Cc1n[nH]cc1-c1cc(C(O)C(C)C)cc(C(F)(F)F)c1 (stereo not shown) [Compound 32] | 1010 to 3000
27 | CNCCN(C)Cc1c[nH]nc1-c1ccc(CC(C)C)c(C(F)(F)F)c1 [Compound 34] | < 100
28 | CNCCN(C)Cc1c[nH]nc1-c1cc(OC2CCCCC2)cc(C(F)(F)F)c1 [Compound 39] | < 100
29 | CNCCN(C)Cc1c[nH]nc1-c1cc(OCC(C)C)cc(C(F)(F)F)c1 [Compound 15] | < 100
30 | CNCCN(C)Cc1n[nH]cc1-c1ccc(OCCOC)c(C(F)(F)F)c1 [Compound 21] | < 100
31 | CNCCN(C)Cc1n[nH]cc1-c1cc(OCCCOC)cc(C(F)(F)F)c1 [Compound 27] | 101 to 1000
32 | CNCCN(C)Cc1c[nH]nc1-c1cc(OCC2CCCC2)cc(C(F)(F)F)c1 [Compound 45] | < 100
33 | CNCCN(C)Cc1n[nH]cc1-c1cc(OCC(C)C)cc(C(F)(F)F)c1 [Compound 29] | < 100
34 | CNCCN(C)Cc1c[nH]nc1-c1cc(OCCCC(F)(F)F)cc(C(F)(F)F)c1 [Compound 48] | < 100
35 | CN(CCN)Cc1c[nH]nc1-c1cc(C(F)(F)F)cc(C(F)(F)F)c1 [Compound 2] | 101 to 1000
36 | CNCCN(C)Cc1c[nH]nc1-c1ccc(OCC(C)C)c(C(F)(F)F)c1 [Compound 10] | < 100
37 | CC(C)Oc1ccc(-c2n[nH]cc2CN(C)CCN)cc1C(F)(F)F [Compound 5] | < 100
38 | COCCOc1cc(-c2n[nH]cc2CN(C)CCN)cc(C(F)(F)F)c1Cl [Compound 56] | 101 to 1000
39 | CNCCN(C)Cc1c[nH]nc1-c1ccc(OCCC(C)C)c(C(F)(F)F)c1 [Compound 9] | < 100
40 | CN(CCN)Cc1c[nH]nc1-c1ccc(Cl)c(C(F)(F)F)c1 [Compound 3] | < 100
41 | CCCOc1ccc(-c2c[nH]nc2CN(C)CCNC)cc1C(F)(F)F [Compound 28] | < 100
42 | CCCOc1ccc(-c2n[nH]cc2CN(C)CCNC)cc1C(F)(F)F [Compound 11] | < 100
43 | CNCCN(C)Cc1c[nH]nc1-c1cc(Oc2ccccc2)cc(C(F)(F)F)c1 [Compound 36] | < 100
44 | CNCCN(C)Cc1c[nH]nc1-c1cc(OCCOC)cc(C(F)(F)F)c1 [Compound 16] | < 100

Row | Compound | IC50 [nM]
45 | CNCCN(C)Cc1n[nH]cc1-c1cc(OCCC(C)C)cc(C(F)(F)F)c1 [Compound 22] | < 100
46 | CNCCN(C)Cc1c[nH]nc1-c1cc(Oc2ccncc2)cc(C(F)(F)F)c1 [Compound 38] | 101 to 1000
47 | CNCCN(C)Cc1c[nH]nc1-c1cc(Oc2cncnc2)cc(C(F)(F)F)c1 [Compound 53] | 101 to 1000
48 | CNCCN(C)Cc1c[nH]nc1-c1cc(C)c(OCC2CCC2)c(C(F)(F)F)c1 [Compound 58] | < 100
49 | CNCCN(C)Cc1c[nH]nc1-c1cc(C)c(OC2COC2)c(C(F)(F)F)c1 [Compound 66] | < 100
50 | CNCCN(C)Cc1c[nH]nc1-c1cc(OCCC(C)C)cc(C(F)(F)F)c1 [Compound 12] | < 100
51 | CNCCN(C)Cc1c[nH]nc1-c1cc(OCCCOC)cc(C(F)(F)F)c1 [Compound 24] | < 100
52 | CNCCN(C)Cc1c[nH]nc1-c1cc(OCC(F)(F)F)cc(C(F)(F)F)c1 [Compound 60] | < 100
53 | CNCCN(C)Cc1c[nH]nc1-c1cc(Oc2cccnc2)cc(C(F)(F)F)c1 [Compound 51] | < 100
54 | CC(C)CCc1cc(-c2n[nH]cc2CN(C)CCN)cc(C(F)(F)F)c1 [Compound 63] | < 100
55 | CNCCN(C)Cc1c[nH]nc1-c1cc(Cl)c(OCC2CC2)c(C(F)(F)F)c1 [Compound 41] | < 100
56 | CNCCN(C)Cc1c[nH]nc1-c1ccc(OCCOC)c(C(F)(F)F)c1 [Compound 14] | < 100
57 | CN(CCN)Cc1n[nH]cc1-c1cc(C(F)(F)F)cc(C(F)(F)F)c1 [Compound 7] | 1010 to 3000
58 | CNCCN(C)Cc1c[nH]nc1-c1cc(Cl)c(OCC2CCC2)c(C(F)(F)F)c1 [Compound 35] | < 100
59 | CCCOc1cc(-c2c[nH]nc2CN(C)CCNC)cc(C(F)(F)F)c1 [Compound 31] | 101 to 1000
60 | CNCCN(C)Cc1c[nH]nc1-c1cc(OCC2CCC2)cc(C(F)(F)F)c1 [Compound 44] | < 100
61 | CNCCN(C)Cc1c[nH]nc1-c1cc(Cl)c(OC(C)C)c(C(F)(F)F)c1 [Compound 25] | < 100
62 | CNCCN(C)Cc1n[nH]cc1-c1cc(OCCOC)cc(C(F)(F)F)c1 [Compound 30] | 101 to 1000
63 | CC(C)CCOc1cc(-c2n[nH]cc2CN(C)CCN)cc(C(F)(F)F)c1Cl [Compound 40] | 101 to 1000
64 | CNCCN(C)Cc1c[nH]nc1-c1cc(OCCCC(=O)OC)cc(C(F)(F)F)c1 [Compound 61] | < 100
